Measured values reported in patent US11992497B2 (priority 2021, dated 2024).

Legend:
HCT116 [1] = assay: GI50 by clonogenic assay; assay type: cell-based; conditions: Homo sapiens
Method: (§1) For colonogenic assay, the compounds were tested at 4 concentrations for 1 week or 2 weeks on 4 colon cancer cell lines. The compounds, concentrations, colon cancer cell line panel and end time point tested are the following: • CBG: 0 μM, 10 μM, 20 μM, 40 μM, and 80 μM. • Compound 1: 0 μM, 5 μM, 7.5 μM, 10 μM, and 20 μM. • Compound 2: 0 μM, 10 μM, 20 μM, 40 μM, and 80 μM. • Colon cancer cell line panel and end time point: SW620, HCT15, HCT116, 1 week; HT29, 2 weeks
(§2) Four colon cancer cell lines of SW620, HCT15, HT29, and HCT116 were included in the colon cancer cell line panel.
(§3) CBG, compound 1 and compound 2 were dissolved in DMSO at a concentration of 10 mM and stored at −20° C.
(§4) Evaluation of DM compounds treatment-induced growth inhibition was performed to determine the GI50 of four colon cancer cell lines with MTS assay or clonogenic assay. Each experiment was repeated in triplicate. In GraphPad Prism, data were log-transformed and fit with a nonlinear curve to calculate the GI50.
(§5) Clonogenic assay. cells were plated at 6 well plates at a density of 2,500 cells per well. After 24 hours, cells were treated with DM compounds at increasing concentrations or DMSO vehicle and incubated for 1 week or 2 weeks. Cells were then fixed and stained with 1% crystal violet (Sigma-Aldrich) solution. Quantification was performed using ImageJ. Each experiment was repeated in triplicate. In GraphPad Prism, data were log-transformed and fit with a nonlinear curve to calculate the GI50.

HCT15 [2] = assay: GI50 by clonogenic assay; assay type: cell-based; conditions: Homo sapiens
Method: as §1, §2, §3, §4, §5

SW620 [3] = assay: GI50 by clonogenic assay; assay type: cell-based; conditions: Homo sapiens
Method: as §1, §2, §3, §4, §5

HT29 [4] = assay: GI50 by clonogenic assay; assay type: cell-based; conditions: Homo sapiens
Method: as §1, §2, §3, §4, §5

[5] = PK study of CBG, Compound 1 and Compound 2, PO or IP; assay type: in vivo, male Sprague Dawley rats; conditions: CBG 30 mg/kg PO and IP; Compound 1 31.5 mg/kg PO; Compound 2 32.7 mg/kg PO
Method: This study evaluated the pharmacokinetics of (E)-2-(3,7-dimethylocta-2,6-dien-1-yl)-3-methoxy-5-pentylphenol (1) and (E)-2-(3,7-dimethylocta-2,6-dien-1-yl)-1,3-dimethoxy-5-pentylbenzene (2) following oral (PO) or intraperitoneal (IP) administration to male Sprague Dawley rats.
For the oral formulation the test article was added to the appropriate amount of Maisine and stirred until uniform. Next Labrasol was added to the formulation and allowed to stir until uniform. Finally, water will be slowly added to the stirring formulation to achieve the final volume.
For the IP formulation the test article was added to the appropriate amount of ethanol and stirred until uniform. Next, the appropriate amount of tween-20 was added to the stirred formulation. Finally, the appropriate amount of saline was slowly added to the stirred formulation to achieve the final volume.
Animals were fasted the evening prior to dosing with food returned at 4 h postdose, and the animals weighed on the morning of dose administration.
IP doses were administered via injection to the intraperitoneal region. PO doses were delivered into the stomach via syringe and gavage tube.
Blood was collected from via direct jugular stick or from the tail vein. Blood samples were kept on ice until being centrifuged at 3200 RPM for 10 minutes at ˜5° C. within 1 h of collection. Plasma was split into 2 cryovials in approximately equal volumes (0.05 mLs) and stored at −20° C.±5° C. until shipment.

HCT116 [6] = assay: GI50 by MTS assay; assay type: cell-based; conditions: Homo sapiens, HCT-116
Method: (§6) For MTS assay, the compounds have been tested at 8 concentrations on 4 colon cancer cell lines for 48 hours. The compounds, concentrations and colon cancer cell line panel tested are the following: • CBG: 0 μM, 1.25 μM, 2.5 μM, 5 μM, 10 μM, 20 μM, 40 μM, and 80 μM. • Compound 1: 0 μM, 1.25 μM, 2.5 μM, 5 μM, 10 μM, 20 μM, 40 μM, and 80 μM. • Compound 2: 0 μM, 1.25 μM, 2.5 μM, 5 μM, 10 μM, 20 μM, 40 μM, and 80 μM. • Colon cancer cell line panel: SW620, HCT15, HT29, HCTl16
as §2, §3, §4
(§7) MTS assay. cells were plated at 96 well plates at a density of 1,000 cells per well. After 24 hours, cells were treated with DM compounds at increasing concentrations or DMSO vehicle and incubated for 48 hours. 20 μl of MTS reagent (Promega) was then added and incubated for 2 hours. The absorbance was measured with a microplate reader at 490 nm. Each experiment was repeated in triplicate. In GraphPad Prism, data were log-transformed and fit with a nonlinear curve to calculate the GI50.

HCT15 [7] = assay: GI50 by MTS assay; assay type: cell-based; conditions: Homo sapiens, HCT-15
Method: as §6, §2, §3, §4, §7

SW620 [8] = assay: GI50 by MTS assay; assay type: cell-based; conditions: Homo sapiens, SW-620
Method: as §6, §2, §3, §4, §7

HT29 [9] = assay: GI50 by MTS assay; assay type: cell-based; conditions: Homo sapiens, HT-29
Method: as §6, §2, §3, §4, §7

[10] = HCT-116, 168 h, HCT116 cells, 1 week, read-out: GI50 (clonogenic assay)
[11] = HCT-116, clonogenic assay, HCT116, average of N1-N3, read-out: GI50 AVG
[12] = HCT-116, clonogenic assay, HCT116, replicate N1, read-out: GI50 N1
[13] = HCT-116, clonogenic assay, HCT116, replicate N2, read-out: GI50 N2
[14] = HCT-116, clonogenic assay, HCT116, replicate N3, read-out: GI50 N3
[15] = HCT-15, 168 h, HCT15 cells, 1 week, read-out: GI50 (clonogenic assay)
[16] = HCT-15, clonogenic assay, HCT15, average of N1-N3, read-out: GI50 AVG
[17] = HCT-15, clonogenic assay, HCT15, replicate N1, read-out: GI50 N1
[18] = HCT-15, clonogenic assay, HCT15, replicate N2, read-out: GI50 N2
[19] = HCT-15, clonogenic assay, HCT15, replicate N3, read-out: GI50 N3
[20] = SW-620, 168 h, SW620 cells, 1 week, read-out: GI50 (clonogenic assay)
[21] = SW-620, clonogenic assay, SW620, average of N1-N3, read-out: GI50 AVG
[22] = SW-620, clonogenic assay, SW620, replicate N1, read-out: GI50 N1
[23] = SW-620, clonogenic assay, SW620, replicate N2, read-out: GI50 N2
[24] = SW-620, clonogenic assay, SW620, replicate N3, read-out: GI50 N3
[25] = HT-29, 336 h, HT29 cells, 2 weeks, read-out: GI50 (clonogenic assay)
[26] = HT-29, clonogenic assay, HT29, average of N1-N3, read-out: GI50 AVG
[27] = HT-29, clonogenic assay, HT29, replicate N1, read-out: GI50 N1
[28] = HT-29, clonogenic assay, HT29, replicate N2, read-out: GI50 N2
[29] = HT-29, clonogenic assay, HT29, replicate N3, read-out: GI50 N3
[30] = HCTl116 cells, 48 hours, read-out: GI50 (MTS assay)
[31] = HCT15 cells, 48 hours, read-out: GI50 (MTS assay)
[32] = MTS assay, HCT15, 48 hours, average of N1-N3, read-out: GI50 AVG
[33] = MTS assay, HCT15, 48 hours, replicate N1, read-out: GI50 N1
[34] = MTS assay, HCT15, 48 hours, replicate N2, read-out: GI50 N2
[35] = MTS assay, HCT15, 48 hours, replicate N3, read-out: GI50 N3
[36] = MTS assay, SW620, 48 hours, replicate N1, read-out: GI50 N1
[37] = MTS assay, SW620, 48 hours, replicate N2, read-out: GI50 N2
[38] = MTS assay, SW620, 48 hours, replicate N3, read-out: GI50 N3
[39] = SW620 cells, 48 hours, read-out: GI50 (MTS assay)
[40] = HT29 cells, 48 hours, read-out: GI50 (MTS assay)
[41] = MTS assay, HT29, 48 hours, replicate N1, read-out: GI50 N1
[42] = MTS assay, HT29, 48 hours, replicate N2, read-out: GI50 N2
[43] = MTS assay, HT29, 48 hours, replicate N3, read-out: GI50 N3

SMILES | GI50 (HCT116 [1]; [10]) | GI50 (HCT116 [1]; [11]) | GI50 (HCT116 [1]; [12]) | GI50 (HCT116 [1]; [13]) | GI50 (HCT116 [1]; [14]) | GI50 (HCT15 [2]; [15]) | GI50 (HCT15 [2]; [16]) | GI50 (HCT15 [2]; [17]) | GI50 (HCT15 [2]; [18]) | GI50 (HCT15 [2]; [19]) | GI50 (SW620 [3]; [20]) | GI50 (SW620 [3]; [21]) | GI50 (SW620 [3]; [22]) | GI50 (SW620 [3]; [23]) | GI50 (SW620 [3]; [24]) | GI50 (HT29 [4]; [25]) | GI50 (HT29 [4]; [26]) | GI50 (HT29 [4]; [27]) | GI50 (HT29 [4]; [28]) | GI50 (HT29 [4]; [29]) | also measured
CCCCCc1cc(O)c(C/C=C(\C)CCC=C(C)C)c(OC)c1 [Compound 1, (E)-2-(3,7-dimethylocta-2,6-dien-1-yl)-3-methoxy-5-pentylphenol] | 5.51 ± 1.51 µM | 5.51 µM | 4.79 µM | 7.61 µM | 4.12 µM | 5.03 ± 2.16 µM | 5.03 µM | 3.64 µM | 7.52 µM | 3.94 µM | 5.35 ± 1.11 µM | 5.35 µM | 5.76 µM | 4.09 µM | 6.2 µM | 2.95 ± 1.41 µM | 2.95 µM | 1.33 µM | 3.87 µM | 3.66 µM | glucuronidation / glucuronide formation in plasma (in words) [5]: significantly reduced levels of glucuronidation compared to CBG; GI50 (HCT116 [6]; [30]): 10.3 ± 0.24 µM; GI50 (HCT15 [7]; [31]): 10 ± 0.52 µM; GI50 (HCT15 [7]; [32]): 10 µM; GI50 (HCT15 [7]; [33]): 10.1 µM; GI50 (HCT15 [7]; [34]): 9.46 µM; GI50 (HCT15 [7]; [35]): 10.5 µM; GI50 (SW620 [8]; MTS assay, SW620, 48 hours, average of N1-N3, read-out: GI50 AVG): 8.76 µM; GI50 (SW620 [8]; [36]): 8.47 µM; GI50 (SW620 [8]; [37]): 7.55 µM; GI50 (SW620 [8]; [38]): 10.3 µM; GI50 (SW620 [8]; [39]): 8.76 ± 1.38 µM; GI50 (HT29 [9]; [40]): 10.2 ± 0.4 µM; GI50 (HT29 [9]; MTS assay, HT29, 48 hours, average of N1-N3, read-out: GI50 AVG): 10.2 µM; GI50 (HT29 [9]; [41]): 9.84 µM; GI50 (HT29 [9]; [42]): 10.1 µM; GI50 (HT29 [9]; [43]): 10.6 µM
CCCCCc1cc(OC)c(C/C=C(\C)CCC=C(C)C)c(OC)c1 [Compound 2, (E)-2-(3,7-dimethylocta-2,6-dien-1-yl)-1,3-dimethoxy-5-pentylbenzene] | 43.1 ± 7.68 µM | 43.1 µM | 53.4 µM | 40.6 µM | 35.1 µM | 35.9 ± 8.95 µM | 35.9 µM | 46.2 µM | 30.5 µM | 31 µM | 41.7 ± 5.9 µM | 41.7 µM | 47.8 µM | 41.2 µM | 36 µM | 34.5 ± 14.4 µM | 34.5 µM | 51.1 µM | 25 µM | 27.3 µM | glucuronidation / glucuronide formation in plasma (in words) [5]: completely blocked glucuronide formation; GI50 (HCT116 [6]; [30]): > 80 µM; GI50 (HCT116 [6]; MTS assay, HCT116, 48 hours, replicate N1, read-out: GI50 N1): > 80 µM; GI50 (HCT116 [6]; MTS assay, HCT116, 48 hours, replicate N2, read-out: GI50 N2): > 80 µM; GI50 (HCT116 [6]; MTS assay, HCT116, 48 hours, replicate N3, read-out: GI50 N3): > 80 µM; GI50 (HCT15 [7]; [31]): > 80 µM; GI50 (HCT15 [7]; [32]): 35.9 µM; GI50 (HCT15 [7]; [33]): > 80 µM; GI50 (HCT15 [7]; [34]): > 80 µM; GI50 (HCT15 [7]; [35]): > 80 µM; GI50 (SW620 [8]; [36]): > 80 µM; GI50 (SW620 [8]; [37]): > 80 µM; GI50 (SW620 [8]; [38]): > 80 µM; GI50 (SW620 [8]; [39]): > 80 µM; GI50 (HT29 [9]; [40]): > 80 µM; GI50 (HT29 [9]; [41]): > 80 µM; GI50 (HT29 [9]; [42]): > 80 µM; GI50 (HT29 [9]; [43]): > 80 µM
